{
  "source": "paper PMC10120551",
  "about": "“Novel Glu-based pyrazolo[3,4-d]pyrimidine analogues: design, synthesis and biological evaluation as DHFR and TS dual inhibitors” (Journal of Enzyme Inhibition and Medicinal Chemistry, 2023)",
  "key": {"[1]": {"system": "MCF-7 cells", "experiment": "Apoptosis analysis (annexin-V/PI, flow cytometry)", "format": "cell-based, human", "settings": "MCF-7, 10 µM, 24 h; DMSO control 0.29%", "procedure": "Figure 5. Flow cytometric analyses: cell cycle distribution analysis using PI staining method in which MCF-7 cells were treated by 6i (10 µM) and DMSO (negative control; NC) for 48 h; (A) 6i, (B) DMSO, (C) cells percentage in different phases (G0-G1, S, G2/M); apoptotic induction using annexin-V-FITC/PI staining method in which cancer cells were treated by 6i (10 µM) and DMSO (negative control; NC) for 24 h; (D) 6i, (E) DMSO, (F) histogram for induction of apoptosis.\nAgain, MCF-7 cells were treated with 6i (10 µM) to assess its effect on cell apoptosis. As shown in Figure 5(D,E), the fraction of cells in early apoptosis were 26.27% and 0.43%, while in late apoptosis, they were 8.90% and 0.29% for compound 6i and DMSO control, respectively. The obtained results hinted that compound 6i could induce apoptotic pathways. However, the ratio of apoptosis inferred that the anti-proliferative effect of compound 6i was largely dependent on apoptosis.\nThe MCF-7 cells (10^6 cells/ml) were treated with either 10 µM of 6i or DMSO (NC) for 24 h. After that, the cells were trypsinised, collected, washed, and stained with PE-Annexin-V (BioVision, K101-25) in the presence of PI[67]. The induction of apoptosis was analysed by flow cytometry using BD FACS Calibur[67]."}, "[2]": {"system": "CCRF-CEM", "settings": "Leukaemia, five-dose 0.01–100 µM"}, "[3]": {"system": "HL-60(TB)", "experiment": "cells", "settings": "Homo sapiens"}, "[4]": {"system": "MDA-MB-435", "settings": "MDA-MB-435, Melanoma; five-dose 0.01–100 µM"}, "[5]": {"system": "SK-MEL-5", "settings": "SK-MEL-5, Melanoma; five-dose 0.01–100 µM"}, "[6]": {"system": "OVCAR-8", "settings": "OVCAR-8, Ovarian cancer; five-dose 0.01–100 µM"}, "[7]": {"system": "DU-145", "settings": "DU-145, Prostate cancer; five-dose 0.01–100 µM"}, "[8]": {"system": "MCF7", "settings": "MCF7, Breast cancer; five-dose 0.01–100 µM"}, "[9]": {"system": "BT-549", "settings": "BT-549, Breast cancer; five-dose 0.01–100 µM"}, "[10]": {"system": "RPMI-8226", "experiment": "cells", "settings": "Homo sapiens"}, "[11]": {"system": "full NCI 59 cell panel"}, "[12]": {"system": "SNB-75", "experiment": "cells", "settings": "Homo sapiens"}, "[13]": {"system": "MDA-MB-435", "experiment": "cells", "settings": "Homo sapiens"}, "[14]": {"system": "SK-MEL-5", "experiment": "cells", "settings": "Homo sapiens"}, "[15]": {"system": "OVCAR-5", "experiment": "cells", "settings": "Homo sapiens"}, "[16]": {"system": "OVCAR-4", "experiment": "cells", "settings": "Homo sapiens"}, "[17]": {"system": "RXF 393", "experiment": "cells", "settings": "Homo sapiens"}, "[18]": {"system": "HS 578 T", "experiment": "cells", "settings": "Homo sapiens"}, "[19]": {"system": "MDA-MB-468", "experiment": "cells", "settings": "Homo sapiens"}},
  "data": [
    {"compound": "CCOC(=O)CC[C@H](NC(=O)c1ccc(NC(=O)Cn2cnc3c(c(C)nn3-c3ccc(Br)cc3)c2=O)cc1)C(=O)OCC", "note": "[Compound 6i]", "values": [
      {"measurement": "fraction of cells in late apoptosis", "setting": "[1]", "result": 8.90, "unit": "%"},
      {"measurement": "TGI", "setting": "[2]", "result": ">100", "unit": "µM"},
      {"measurement": "GI50", "setting": "[3]; HL-60", "result": "> 100", "unit": "µM"},
      {"measurement": "CC50", "setting": "[3]; HL-60, read-out: LC50", "result": "> 100", "unit": "µM"},
      {"measurement": "TGI", "setting": "[4]", "result": 34.3, "unit": "µM"},
      {"measurement": "TGI", "setting": "[5]", "result": 43.1, "unit": "µM"},
      {"measurement": "TGI", "setting": "[6]", "result": ">100", "unit": "µM"},
      {"measurement": "TGI", "setting": "[7]", "result": 28.8, "unit": "µM"},
      {"measurement": "TGI", "setting": "[8]", "result": 16.5, "unit": "µM"},
      {"measurement": "TGI", "setting": "[9]", "result": ">100", "unit": "µM"},
      {"measurement": "GI50", "setting": "[10]; RPMI-8226", "result": 22.7, "unit": "µM"},
      {"measurement": "CC50", "setting": "[10]; RPMI-8226, read-out: LC50", "result": "> 100", "unit": "µM"},
      {"measurement": "TGI", "setting": "[11]; HL-60(TB), CCRF-CEM, MOLT-4, K-562, SR, RPMI-8226, HCC-2998, HCT-15, HCT-116, KM12, U250, M14, UACC-257, OVCAR-8, SN12C, 786-0, T-47D, BT-549", "result": "more than 100 µM"},
      {"measurement": "Full panel MG-MID", "setting": "[11]; mean graph midpoint based on GI50, full NCI 59 cell panel", "result": 20.45, "unit": "µM"},
      {"measurement": "GI50", "setting": "[12]; SNB-75", "result": 14.9, "unit": "µM"},
      {"measurement": "CC50", "setting": "[12]; SNB-75, read-out: LC50", "result": "> 100", "unit": "µM"},
      {"measurement": "GI50", "setting": "[13]; MDA-MB-435", "result": 12.2, "unit": "µM"},
      {"measurement": "CC50", "setting": "[13]; MDA-MB-435, read-out: LC50", "result": 96.1, "unit": "µM"},
      {"measurement": "GI50", "setting": "[14]; SK-MEL-5", "result": 19.4, "unit": "µM"},
      {"measurement": "CC50", "setting": "[14]; SK-MEL-5, read-out: LC50", "result": 95.8, "unit": "µM"},
      {"measurement": "GI50", "setting": "[15]; OVCAR-5", "result": 20.2, "unit": "µM"},
      {"measurement": "CC50", "setting": "[15]; OVCAR-5, read-out: LC50", "result": "> 100", "unit": "µM"},
      {"measurement": "GI50", "setting": "[16]; OVCAR-4", "result": 13.4, "unit": "µM"},
      {"measurement": "CC50", "setting": "[16]; OVCAR-4, read-out: LC50", "result": 76.7, "unit": "µM"},
      {"measurement": "GI50", "setting": "[17]; RXF 393", "result": 15.9, "unit": "µM"},
      {"measurement": "CC50", "setting": "[17]; RXF 393, read-out: LC50", "result": "> 100", "unit": "µM"},
      {"measurement": "GI50", "setting": "[18]", "result": 12.7, "unit": "µM"},
      {"measurement": "CC50", "setting": "[18]; read-out: LC50", "result": "> 100", "unit": "µM"},
      {"measurement": "GI50", "setting": "[19]; MDA-MB-468", "result": 13.5, "unit": "µM"},
      {"measurement": "CC50", "setting": "[19]; MDA-MB-468, read-out: LC50", "result": "> 100", "unit": "µM"}
    ]}
  ]
}
